Measured values from patent publication US11464780B2, “Pyrazolopyrimidine derivative and use thereof” (Simcere Pharmaceutical Co. Ltd., priority 2018, dated 2022).
pIC50: −log10 of the molar value. Where two headings read alike, the source gives them in different places.

Columns and labels:
ALK = target: T1, ALK (Homo sapiens, UniProt Q9UM73); assay: Kinase inhibitory activity (33P-ATP filter binding, Reaction Biology Corp.); format: biochemical; conditions: read-out: The half maximal inhibitory concentration IC50 on the kinases, ALK
T1 construct: purchased Reaction Biology Corp. (contract assay)
Procedure: The inhibitory activities of the compounds on TrkA, TrkC, ALK, Ros1 and other kinases were determined by Reaction Biology Corp. To reaction buffer (20 mM Hepes (pH 7.5), 10 mM MgCl2, 1 mM EGTA, 0.02% Brij35, 0.02 mg/mL BSA, 0.1 mM Na3VO4, 2 mM DTT, 1% DMSO) were sequentially added a certain concentration of substrate, coenzyme factor, kinase and test compound (10 concentrations, 3-fold serial dilutions, DMSO at a final concentration of […]), and the mixture was mixed evenly. The mixture was incubated at room temperature for 20 minutes. To the reaction mixture was added a certain concentration of ^33P-ATP to initiate the reaction, and then the mixture was incubated at room temperature for 120 minutes. The radioactivities of the reactants were determined by the method of filter binding. The final kinase activity was expressed as the ratio of the remaining kinase activity in the test sample to the kinase activity in the DMSO control group. The dose-effect curve was fitted by GraphPad software and the IC50 was calculated.

[1] = target: T2, Ba/F3 LMNA-NTRK1-WT stably transfected cell line (Homo sapiens, UniProt P04629); assay: Cell proliferation inhibition (CellTiter-Glo); format: cell-based; conditions: 72 hours, read-out: The half maximal inhibitory concentration IC50 against cells, Ba/F3 LMNA-NTRK1-WT
T2 construct: fused on or other part: P02545 (Prelamin-A/C)
Procedure: Adenosine Tri-Phosphate (ATP) is an energy carrier shared by various life activities in nature, and is the smallest unit of energy storage and transfer. The CellTiter-Glo™ cell viability detection kit uses luciferase as the detection substance, and luciferase requires the participation of ATP during the process of luminescence. CellTiter-Glo™ reagent is added to cell culture medium, and the luminescent intensity is measured. The luminescent signal is directly proportional to the amount of ATP in the system, and ATP is positively related to the number of living cells. Therefore, by using the CellTiter-Glo kit to detect ATP content, cell proliferation can be detected. In this assay, the cell line is Ba/F3 LMNA-NTRK1-WT stably transfected cell line, with 5000 cells/well.
IC50 Determination Process:
1. Cell Culture and Inoculation
a) the cells in the logarithmic growth phase were harvested, and counted with a platelet counter. Trypan blue exclusion method was used to detect cell viability to ensure the cell viability was no less than 90%.
b) the cell concentration was adjusted; 90 μL of cell suspension was added respectively into a 96-well plate.
c) the cells in the 96-well plates was cultured under conditions of 37° C., 5% CO2 and 95% humidity overnight.
2. Drug Dilution and Administration
a) 10-fold drug solutions were prepared, the highest concentration was 10 μM, 9 concentrations, 3-fold diluted (refer to Appendix I). 10 μL of each drug solution was added to each well of the 96-well plate seeded with the cells in triplicate.
b) the cells in the 96-well plate added with the drug were cultured under conditions of 37° C., 5% CO2 and 95% humidity for 72 hours, and then CTG (cell proliferation) was performed.
a) CellTiter-Glo™ reagent was thawed, and the cell plate was equilibrated at room temperature for 30 minutes.
b) CellTiter-Glo™ reagent of a same volume was added to each well;
c) the cell plate was shaken on an orbital shaker for 5 minutes to lyse the cells.
d) the cell plate was placed at room temperature for 20 minutes to stabilize the luminescent signal.
e) the luminescent intensity was read.
GraphPad Prism 5.0 software was used to analyze the data, nonlinear S-curve regression was used to fit the data to obtain dose-effect curve, and IC50 value was calculated therefrom.

[2] = target: T3, Ba/F3 LMNA-NTRK1-G595R stably transfected cell line (Homo sapiens, UniProt P04629, G595R, cells depend on it); assay: Cell proliferation inhibition (CellTiter-Glo); format: cell-based; conditions: 72 hours, read-out: The half maximal inhibitory concentration IC50 against cells, Ba/F3 LMNA-NTRK1-G595R
T3 construct: fused on or other part: P02545 (Prelamin-A/C)

[3] = In vivo pharmacokinetic test in mice; parameters: species or system male CD-1 mice; conditions: for Cmax: read-out: Peak concentration Cmax; for Vd: read-out: Apparent volume of distribution Vd; for AUC(0-t): read-out: Area under the curve AUC0-last; for half-life: read-out: Half life T1/2 (converted); for bioavailability: read-out: Bioavailability F %; for Tmax: read-out: Time of peak concentration Tmax
Procedure: Experimental object: male CD-1 mice aged 7-9 weeks were used as the experimental animals, the LC/MS/MS method was used to determine the drug concentrations in plasma at different time points after single intravenous (IV) and intragastric (PO) administration of the compounds, in vivo pharmacokinetic behaviors of the compounds of the present disclosure in mice were studied, and pharmacokinetic characteristics thereof were evaluated. Drug preparation: The compounds were prepared into clear solutions with 5% DMSO+10% solutol+85% water as solvent for administration in IV (intravenous) group and PO (intragastric). The dose of the compounds: IV dose of 3 mg/kg, and PO dose of […].

Ros1 = target: T4, Ros1 (Homo sapiens, UniProt P08922); assay: Kinase inhibitory activity (33P-ATP filter binding, Reaction Biology Corp.); format: biochemical; conditions: read-out: The half maximal inhibitory concentration IC50 on the kinases, Ros1
T4 construct: purchased Reaction Biology Corp. (contract assay)
Procedure: (§1) The mixture was incubated at room temperature for 20 minutes. To the reaction mixture was added a certain concentration of ^33P-ATP to initiate the reaction, and then the mixture was incubated at room temperature for 120 minutes. The radioactivities of the reactants were determined by the method of filter binding. The final kinase activity was expressed as the ratio of the remaining kinase activity in the test sample to the kinase activity in the DMSO control group. The dose-effect curve was fitted by GraphPad software and the IC50 was calculated.

TrkA-G667C = target: T5, TrkA-G667C (Homo sapiens, UniProt P04629, G667C); assay: as above; format: biochemical; conditions: read-out: The half maximal inhibitory concentration IC50 on the kinases, TrkA-G667C
T5 construct: purchased Reaction Biology Corp. (contract assay)
Procedure: as §1

TrkC = target: T6, TrkC (Homo sapiens, UniProt Q16288); assay: as above; format: biochemical; conditions: read-out: The half maximal inhibitory concentration IC50 on the kinases, TrkC
T6 construct: purchased Reaction Biology Corp. (contract assay)
Procedure: as §1

TrkA-G595R = target: T7, TrkA-G595R (Homo sapiens, UniProt P04629, G595R); assay: as above; format: biochemical; conditions: read-out: The half maximal inhibitory concentration IC50 on the kinases, TrkA-G595R
T7 construct: purchased Reaction Biology Corp. (contract assay)
Procedure: as §1

TrkA = target: T8, TrkA (Homo sapiens, UniProt P04629); assay: as above; format: biochemical; conditions: read-out: The half maximal inhibitory concentration IC50 on the kinases, TrkA
T8 construct: purchased Reaction Biology Corp. (contract assay)
Procedure: as §1

[4] = target: T9, BaF3 ETV6-NTRK3-G623R stably transfected cell line (Homo sapiens, UniProt Q16288, G623R, cells depend on it); assay: Cell proliferation inhibition (CellTiter-Glo); format: cell-based; conditions: 72 hours, read-out: The half maximal inhibitory concentration IC50 against cells, BaF3 ETV6-NTRK3-G623R
T9 construct: fused on or other part: P41212 (Transcription factor ETV6)

[5] = tested on: human colon cancer cell line KM12 subcutaneous xenograft tumor; assay: In vivo efficacy, subcutaneous xenograft tumor of human colon cancer KM12; parameters: species or system BALB/c mouse; conditions: PO
Procedure: Experimental object: evaluation of the in vivo efficacy of test drugs such as WX002A on subcutaneous xenograft tumor of human colon cancer cell line KM12 cell in BALB/c mouse model.
Drug preparation: The compounds were all prepared into clear solutions with 5% DMSO+10% solutol+85% water as solvent for administration in the PO (intragastric) group.
Tumor measurement: the tumor diameters were measured with a vernier caliper twice a week. The calculation formula of tumor volume is: V=0.5×a×b^2, wherein a and b represent the long diameter and short diameter of the tumor, respectively. The anti-tumor efficacy of the compounds is evaluated by TGI (%). TGI (%) reflects tumor growth inhibition rate.
Statistical analysis: The statistical analysis was based on the relative tumor volume and tumor weight at the end of the experiment using SPSS software. One-way ANOVA was used to analyze the comparison between multiple groups. […] P<0.05 was considered to indicate significant difference.

[6] = In vivo cassette pharmacokinetic test in mice; parameters: species or system male CD-1 mice; conditions: cassette, mice; for Apparent clearance Cl: IV @ 1 mpk
Procedure: The dose of the compounds: […] PO dose of 3 mg/kg, and administration volume of 3 mL/kg.

[7] = male, CD-1, mouse, plasma, IV dose of 3 mg/kg
[8] = male, CD-1, mouse, plasma, PO dose of 10 mL/kg vs IV 3 mg/kg
[9] = male, CD-1, mouse, plasma, PO dose of 10 mL/kg

T2 sequence (P04629 whole entry, stated change not applied, the tested form may be a part): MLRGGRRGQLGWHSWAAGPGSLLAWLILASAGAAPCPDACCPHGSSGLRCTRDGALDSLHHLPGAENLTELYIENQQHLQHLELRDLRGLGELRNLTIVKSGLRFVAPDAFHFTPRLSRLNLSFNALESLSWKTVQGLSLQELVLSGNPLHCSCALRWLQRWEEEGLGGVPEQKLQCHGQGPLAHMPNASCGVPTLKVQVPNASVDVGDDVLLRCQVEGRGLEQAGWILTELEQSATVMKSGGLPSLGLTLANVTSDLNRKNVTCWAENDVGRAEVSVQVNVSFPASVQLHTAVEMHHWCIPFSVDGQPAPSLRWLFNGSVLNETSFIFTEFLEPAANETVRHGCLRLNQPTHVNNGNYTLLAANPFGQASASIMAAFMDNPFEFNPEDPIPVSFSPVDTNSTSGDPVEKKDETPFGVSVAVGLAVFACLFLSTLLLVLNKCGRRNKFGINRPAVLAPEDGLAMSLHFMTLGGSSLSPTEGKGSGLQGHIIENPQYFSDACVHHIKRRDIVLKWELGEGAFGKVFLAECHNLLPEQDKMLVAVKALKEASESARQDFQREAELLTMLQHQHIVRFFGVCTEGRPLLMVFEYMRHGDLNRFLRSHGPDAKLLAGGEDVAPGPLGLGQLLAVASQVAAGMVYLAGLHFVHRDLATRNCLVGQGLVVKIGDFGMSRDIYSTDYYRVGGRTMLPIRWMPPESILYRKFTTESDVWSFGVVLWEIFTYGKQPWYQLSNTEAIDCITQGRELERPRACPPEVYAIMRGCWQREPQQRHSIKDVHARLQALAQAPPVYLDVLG
T1 sequence (Q9UM73 19-1620): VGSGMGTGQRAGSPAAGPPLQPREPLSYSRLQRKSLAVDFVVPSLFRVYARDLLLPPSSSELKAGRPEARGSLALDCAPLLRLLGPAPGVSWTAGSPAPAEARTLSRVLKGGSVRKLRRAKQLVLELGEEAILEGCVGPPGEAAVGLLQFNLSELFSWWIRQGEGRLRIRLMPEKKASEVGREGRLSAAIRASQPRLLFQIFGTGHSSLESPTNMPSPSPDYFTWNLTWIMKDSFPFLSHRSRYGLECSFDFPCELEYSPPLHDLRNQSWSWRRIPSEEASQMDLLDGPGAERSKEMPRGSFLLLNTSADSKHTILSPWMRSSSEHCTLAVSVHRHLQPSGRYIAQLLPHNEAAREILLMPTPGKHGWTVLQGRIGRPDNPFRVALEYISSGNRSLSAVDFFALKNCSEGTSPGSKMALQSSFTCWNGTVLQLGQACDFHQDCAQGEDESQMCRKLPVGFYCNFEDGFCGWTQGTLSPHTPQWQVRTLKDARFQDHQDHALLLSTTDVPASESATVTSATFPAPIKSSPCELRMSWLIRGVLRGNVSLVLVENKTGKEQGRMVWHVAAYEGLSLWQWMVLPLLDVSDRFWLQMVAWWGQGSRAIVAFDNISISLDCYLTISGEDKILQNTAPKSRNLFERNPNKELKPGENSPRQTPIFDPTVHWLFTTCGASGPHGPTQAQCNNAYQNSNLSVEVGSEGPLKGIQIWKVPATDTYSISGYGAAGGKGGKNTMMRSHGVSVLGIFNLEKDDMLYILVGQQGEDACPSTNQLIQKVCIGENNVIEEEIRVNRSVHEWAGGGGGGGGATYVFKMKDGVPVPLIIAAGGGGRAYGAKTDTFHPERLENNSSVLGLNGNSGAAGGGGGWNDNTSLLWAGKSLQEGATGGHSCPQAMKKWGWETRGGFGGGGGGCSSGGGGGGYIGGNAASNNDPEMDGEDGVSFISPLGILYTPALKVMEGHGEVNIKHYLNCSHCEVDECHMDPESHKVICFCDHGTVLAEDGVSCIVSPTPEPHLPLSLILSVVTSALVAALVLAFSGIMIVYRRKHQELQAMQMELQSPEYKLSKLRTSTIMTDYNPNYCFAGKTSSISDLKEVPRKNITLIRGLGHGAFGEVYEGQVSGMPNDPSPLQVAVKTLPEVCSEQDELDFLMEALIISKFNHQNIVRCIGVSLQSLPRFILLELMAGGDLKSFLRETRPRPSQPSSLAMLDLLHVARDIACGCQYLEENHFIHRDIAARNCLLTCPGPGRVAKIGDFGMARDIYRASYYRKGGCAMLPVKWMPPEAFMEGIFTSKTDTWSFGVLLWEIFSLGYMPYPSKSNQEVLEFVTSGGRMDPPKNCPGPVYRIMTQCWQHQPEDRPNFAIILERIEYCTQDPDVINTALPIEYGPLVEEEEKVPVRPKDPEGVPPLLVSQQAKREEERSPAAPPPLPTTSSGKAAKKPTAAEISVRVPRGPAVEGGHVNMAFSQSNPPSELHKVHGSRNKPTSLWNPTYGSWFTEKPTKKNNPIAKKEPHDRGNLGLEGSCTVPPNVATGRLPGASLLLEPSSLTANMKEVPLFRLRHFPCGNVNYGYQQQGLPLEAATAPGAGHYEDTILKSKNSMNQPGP
T3 sequence (P04629 whole entry G595R, the tested form may be a part): as the sequence (P04629 whole entry, stated change not applied, the tested form may be a part) above, with G595R counted along it
T9 sequence (Q16288 whole entry G623R, the tested form may be a part): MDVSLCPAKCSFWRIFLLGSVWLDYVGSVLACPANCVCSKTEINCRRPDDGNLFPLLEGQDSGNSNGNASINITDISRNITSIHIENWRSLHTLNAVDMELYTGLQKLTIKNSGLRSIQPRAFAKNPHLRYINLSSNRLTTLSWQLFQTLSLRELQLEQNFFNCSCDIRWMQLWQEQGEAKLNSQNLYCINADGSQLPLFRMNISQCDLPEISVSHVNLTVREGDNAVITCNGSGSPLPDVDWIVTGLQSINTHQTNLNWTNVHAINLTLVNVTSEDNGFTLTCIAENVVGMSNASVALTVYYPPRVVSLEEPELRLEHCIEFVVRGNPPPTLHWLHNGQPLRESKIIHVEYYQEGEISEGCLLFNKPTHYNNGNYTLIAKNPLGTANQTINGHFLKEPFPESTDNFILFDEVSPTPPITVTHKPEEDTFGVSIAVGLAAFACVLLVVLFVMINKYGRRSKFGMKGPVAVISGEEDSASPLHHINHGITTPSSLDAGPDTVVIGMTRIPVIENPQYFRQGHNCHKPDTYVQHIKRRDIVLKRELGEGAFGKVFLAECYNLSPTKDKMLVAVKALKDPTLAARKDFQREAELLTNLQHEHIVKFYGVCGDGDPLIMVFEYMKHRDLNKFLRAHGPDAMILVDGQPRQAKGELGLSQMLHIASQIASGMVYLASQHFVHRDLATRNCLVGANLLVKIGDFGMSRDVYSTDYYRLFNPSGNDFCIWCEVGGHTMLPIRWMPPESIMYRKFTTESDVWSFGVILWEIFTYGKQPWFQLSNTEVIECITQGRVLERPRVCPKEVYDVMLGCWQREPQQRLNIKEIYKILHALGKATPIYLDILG
T7 sequence (P04629 33-796 G595R): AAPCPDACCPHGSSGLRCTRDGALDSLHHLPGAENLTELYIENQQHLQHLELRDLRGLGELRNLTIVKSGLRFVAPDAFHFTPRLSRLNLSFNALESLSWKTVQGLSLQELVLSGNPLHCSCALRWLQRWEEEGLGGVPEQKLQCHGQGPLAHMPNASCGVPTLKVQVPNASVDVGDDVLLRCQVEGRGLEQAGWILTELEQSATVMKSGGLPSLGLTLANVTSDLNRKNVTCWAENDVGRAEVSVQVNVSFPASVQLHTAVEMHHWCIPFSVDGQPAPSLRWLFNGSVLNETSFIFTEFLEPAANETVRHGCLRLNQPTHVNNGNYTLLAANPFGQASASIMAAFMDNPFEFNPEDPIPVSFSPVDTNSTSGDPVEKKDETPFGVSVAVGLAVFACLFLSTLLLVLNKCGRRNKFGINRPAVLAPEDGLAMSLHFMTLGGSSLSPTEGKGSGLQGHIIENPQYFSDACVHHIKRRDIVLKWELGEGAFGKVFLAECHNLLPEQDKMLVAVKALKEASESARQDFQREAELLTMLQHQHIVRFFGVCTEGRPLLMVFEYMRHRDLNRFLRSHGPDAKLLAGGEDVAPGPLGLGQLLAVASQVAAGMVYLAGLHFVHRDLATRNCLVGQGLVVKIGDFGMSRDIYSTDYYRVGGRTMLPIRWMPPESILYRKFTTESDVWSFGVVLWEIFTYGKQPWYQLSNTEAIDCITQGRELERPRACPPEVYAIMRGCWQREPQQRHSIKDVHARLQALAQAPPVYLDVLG
T5 sequence (P04629 33-796 G667C): as the sequence (P04629 33-796 G595R) above, with R563G, G635C counted along it
T6 sequence (Q16288 32-839): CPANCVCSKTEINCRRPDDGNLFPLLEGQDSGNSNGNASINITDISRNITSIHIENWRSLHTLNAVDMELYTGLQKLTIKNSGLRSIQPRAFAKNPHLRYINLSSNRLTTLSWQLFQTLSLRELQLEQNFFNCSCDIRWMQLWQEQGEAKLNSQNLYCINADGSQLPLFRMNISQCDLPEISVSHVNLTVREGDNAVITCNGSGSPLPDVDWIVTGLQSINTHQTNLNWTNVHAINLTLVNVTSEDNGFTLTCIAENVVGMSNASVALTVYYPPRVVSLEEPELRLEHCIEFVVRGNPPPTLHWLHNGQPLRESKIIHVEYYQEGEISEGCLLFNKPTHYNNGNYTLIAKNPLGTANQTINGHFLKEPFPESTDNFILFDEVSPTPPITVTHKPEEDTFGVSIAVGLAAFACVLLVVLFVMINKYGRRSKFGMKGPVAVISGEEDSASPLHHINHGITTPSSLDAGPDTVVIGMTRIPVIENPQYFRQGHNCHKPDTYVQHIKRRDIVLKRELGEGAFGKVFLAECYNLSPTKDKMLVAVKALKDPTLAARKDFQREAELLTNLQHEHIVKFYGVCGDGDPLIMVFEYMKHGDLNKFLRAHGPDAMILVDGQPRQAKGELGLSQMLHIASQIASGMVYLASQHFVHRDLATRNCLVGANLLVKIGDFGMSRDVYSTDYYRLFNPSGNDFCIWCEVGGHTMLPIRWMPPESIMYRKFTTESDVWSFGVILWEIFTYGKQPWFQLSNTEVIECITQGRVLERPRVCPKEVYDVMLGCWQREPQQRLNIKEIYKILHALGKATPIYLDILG
T8 sequence (P04629 33-796): as the sequence (P04629 33-796 G595R) above, with R563G counted along it

Row | pIC50 (ALK) | GI50 [1] | GI50 [2] | Apparent clearance Cl ([3]; IV dose of 3 mg/kg) | Area under the curve AUC0-last ([3]; PO dose of 10 mL/kg) | Time of peak concentration Tmax ([3]; PO dose of 10 mL/kg) | Cmax ([3]; PO dose of 10 mL/kg) | pIC50 (Ros1) | pIC50 (TrkA-G667C) | pIC50 (TrkC) | pIC50 (TrkA-G595R) | pIC50 (TrkA) | GI50 [4] | Vd [3, 7] | AUC(0-t) [3, 7] | half-life [3, 7] | bioavailability [3, 8] | AUC(0-t) [3, 9] | Cmax [3, 9] | Tmax [3, 9] | Compound | also measured
1 | 7.55 | 4.08 nM | 27.9 nM | 10.8 mL/min/kg | 27.967 µM·h | 22.8 min | 7.36 µM | 9.82 | 8.52 | 10.22 | 8.44 | 8.58 | 0.9 nM |  |  |  |  |  |  |  | O=C1NC2(CC2)COc2ccc(F)cc2[C@H]2CCON2c2ccn3ncc1c3n2 (single isomer, unassigned) [WX003A] | Apparent volume of distribution Vd ([3]; IV dose of 3 mg/kg): 0.81 L/kg; Area under the curve AUC0-last ([3]; IV dose of 3 mg/kg): 12.216 µM·h; Half life T1/2 ([3]; IV dose of 3 mg/kg): 42 min; Bioavailability F % ([3]; PO dose of 10 mL/kg vs IV 3 mg/kg): 69%
2 |  |  |  |  | 2.89 µM·h | 22.8 min | 1.55 µM |  |  |  |  |  |  |  |  |  |  |  |  |  | O=C(Nc1cnn2ccc(N3CCC[C@@H]3c3cc(F)ccc3F)nc12)N1CC[C@H](O)C1 [LOXO-101, Larotrectinib, reference compound] | T/C ([5]; high-dose group 60 mg/kg): 34.20%; TGI ([5]; high-dose group 60 mg/kg): 69.73%; Apparent clearance Cl [6]: 22.7 mL/min/kg; drug concentration in cerebrospinal fluid at 0.5 hour CSF@0.5 h ([6]; PO @ 3 mpk, CSF): 15 nmol/kg; drug concentration in cerebrospinal fluid at 2 hour CSF@2 h ([6]; PO @ 3 mpk, CSF, 2 h): 3 nmol/kg; drug concentration in brain at 0.5 h Brain@0.5 h ([6]; PO @ 3 mpk): 40 nmol/kg; drug concentration in brain at 2 h Brain@2 h ([6]; PO @ 3 mpk, 2 h): 20 nmol/kg
3 |  |  |  |  |  |  |  |  |  |  |  |  |  |  |  |  |  |  |  |  | C[C@H]1CNC(=O)c2cnn3ccc(nc23)N[C@H](C)c2cc(F)ccc2O1 [TPX-0005, reference compound] | T/C ([5]; dose of 3 mg/kg): 16.80%; TGI ([5]; dose of 3 mg/kg): 87.46%; Apparent clearance Cl [6]: 16.5 mL/min/kg; drug concentration in cerebrospinal fluid at 0.5 hour CSF@0.5 h ([6]; PO @ 3 mpk, CSF): 8 nmol/kg; drug concentration in brain at 0.5 h Brain@0.5 h ([6]; PO @ 3 mpk): 50 nmol/kg; drug concentration in brain at 2 h Brain@2 h ([6]; PO @ 3 mpk, 2 h): 41 nmol/kg
4 | 6.96 | 7.69 nM | 14.5 nM | 10.4 mL/min/kg |  |  |  | 9.03 | 7.38 | 9.39 | 7.41 | 7.84 | 2.1 nM | 0.75 L/kg | 12.5 µM·h | 44.4 min | 72% | 29.6 µM·h | 10.5 µM | 30 min | C[C@@H]1COc2ncc(F)cc2[C@H]2CCON2c2ccn3ncc(c3n2)C(=O)N1 [WX004A] | 
5 | 7.10 | 23.5 nM | 19.4 nM | 19.9 mL/min/kg |  |  |  | 9.23 | 7.43 | 9.80 | 8.32 | 8.01 | 5.4 nM | 1.01 L/kg | 6.1 µM·h | 33.6 min | 72% | 14.4 µM·h | 8.78 µM | 15 min | O=C1NC2(COC2)COc2ncc(F)cc2[C@H]2CCON2c2ccn3ncc1c3n2 [WX006A] | 
6 | 6.92 |  |  | 17.8 mL/min/kg |  |  |  | 9.09 | 7.58 | 9.52 | 7.43 | 7.87 |  | 0.74 L/kg | 7.34 µM·h | 42.6 min | 111% | 26.7 µM·h | 10.8 µM | 37.8 min | C[C@@H]1COc2ccc(F)cc2[C@H]2CCON2c2ccn3ncc(c3n2)C(=O)N1 [WX017A] | 
